One test deals with Human JNK1α1 (Homo sapiens, UniProt P45983). Kind of test: JNK assay in vitro, phosphorylation of GST-ATF2 (19-96) with [γ-33P] ATP, JNK1. Type of test: biochemical. Particulars: 2 nM enzyme, 1 μM ATF2, 6 μM ATP, 30° C. for 30 min. The method, then: (§1) JNK activity was measured by phosphorylation of GST-ATF2 (19-96) with [γ-^33P] ATP. The enzyme reaction was conducted at Km concentrations of ATP and the substrate at final volume of 40 μl in buffer containing 25 mM HEPES, pH 7.5, 2 mM dithiothreitol, 150 mM NaCl, 20 mM MgCl2, 0.001% Tween® 20, 0.1% BSA and 10% DMSO. Human JNK2α2 assay contains 1 nM enzyme, 1 μM ATF2, 8 μM ATP with 1 uCi [γ-^33P] ATP. Human JNK1α1 assay contains 2 nM enzyme, 1 μM ATF2, 6 μM ATP with 1 μCi [γ-^33P] ATP. Human JNK3 (Upstate Biotech #14-501M) assay contains 2 nM enzyme, 1 μM ATF2, 4 μM ATP with 1 μCi [γ-^33P] ATP. The enzyme assay was carried out in the presence or absence of several compound concentrations. JNK and compound were pre-incubated for 10 min., followed by initiation of the enzymatic reaction by adding ATP and the substrate. The reaction mixture was incubated at 30° C. for 30 min. At the end of incubation, the reaction was terminated by transferring 25 μl of the reaction mixture to 150 μl of 10% glutathione Sepharose® slurry (Amersham # 27-4574-01) containing 135 mM EDTA. The reaction product was captured on the affinity resin, and washed on a filtration plate (Millipore, MABVNOB50) with phosphate buffered saline for six times to remove free radionucleotide. The incorporation of ^33P into ATF2 was quantified on a microplate scintillation counter (Packard Topcount). Compound inhibition potency on JNK was measured by IC50 value generated from ten concentration inhibition curves fitted into the 3-parameter model: % inhibition=Maximum/(1+(IC50/[Inhibitor])^slope). Data were analyzed on Microsoft Excel for parameter estimation.
Sequence of Human JNK1α1 (P45983 1-384 isoform P45983-2): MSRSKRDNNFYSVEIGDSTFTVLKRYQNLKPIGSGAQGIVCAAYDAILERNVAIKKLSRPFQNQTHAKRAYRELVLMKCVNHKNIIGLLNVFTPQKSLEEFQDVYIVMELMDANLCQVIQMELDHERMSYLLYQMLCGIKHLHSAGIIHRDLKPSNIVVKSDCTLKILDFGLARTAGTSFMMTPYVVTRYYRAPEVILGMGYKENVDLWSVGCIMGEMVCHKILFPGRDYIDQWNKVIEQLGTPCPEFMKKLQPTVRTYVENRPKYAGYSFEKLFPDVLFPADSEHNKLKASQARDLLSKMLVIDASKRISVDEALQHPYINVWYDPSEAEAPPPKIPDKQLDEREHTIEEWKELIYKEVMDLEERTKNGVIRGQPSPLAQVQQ

The target of a further test is Human JNK2α2 (Homo sapiens, UniProt P45984). Briefly: JNK assay in vitro, phosphorylation of GST-ATF2 (19-96) with [γ-33P] ATP, JNK2. Particulars: 1 nM enzyme, 1 μM ATF2, 8 μM ATP, 30° C. for 30 min. The class given is biochemical. The method, then:
as §1

Each structure is given as a SMILES string.

The term IC50 denotes the concentration at which inhibition is half-maximal. High values mean a need for much substance, low ones inhibition by little substance.

Sequence of Human JNK2α2 (P45984 whole entry): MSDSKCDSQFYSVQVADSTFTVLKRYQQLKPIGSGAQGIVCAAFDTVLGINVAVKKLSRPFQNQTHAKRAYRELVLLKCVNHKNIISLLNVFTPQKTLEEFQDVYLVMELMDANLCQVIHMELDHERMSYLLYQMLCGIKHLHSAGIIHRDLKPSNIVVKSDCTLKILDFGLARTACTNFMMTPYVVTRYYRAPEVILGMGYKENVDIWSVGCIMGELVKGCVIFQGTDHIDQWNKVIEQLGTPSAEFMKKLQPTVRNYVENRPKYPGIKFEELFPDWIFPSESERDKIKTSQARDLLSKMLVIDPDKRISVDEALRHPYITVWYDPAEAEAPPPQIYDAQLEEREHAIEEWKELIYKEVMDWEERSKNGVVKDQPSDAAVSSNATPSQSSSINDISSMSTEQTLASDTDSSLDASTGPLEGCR

Consider `Cc1cc2cnc(NC3CCCCC3)nc2n(CCCO)c1=O` [Compound 11], for which the values for the IC50 on Human JNK1α1 and at Human JNK2α2 were 0.503 µM and 0.713 µM, respectively.

Turning to `CS(=O)(=O)N[C@H]1CC[C@H](Nc2ncc3ccc(=O)n(CCCO)c3n2)CC1` [Compound 5, N-{4-[8-(3-Hydroxy-propyl)-7-oxo-7,8-dihydro-pyrido[2,3-d]pyrimidin-2-ylamino]-cyclohexyl}-methanesulfonamide], the IC50 against Human JNK1α1 was 0.282 µM; against Human JNK2α2, 0.778 µM.

For `Cc1cc2cnc(N[C@H]3CC[C@H](O)CC3)nc2n(CCCO)c1=O` [Compound 7, 2-(4-Hydroxy-cyclohexylamino)-8-(3-hydroxy-propyl)-6-methyl-8H-pyrido[2,3-d]pyrimidin-7-one], the IC50 against Human JNK1α1 worked out at 0.291 µM; against Human JNK2α2, 0.409 µM.

Take `CS(=O)(=O)NCCCn1c(=O)ccc2cnc(NC3CCCCC3)nc21` [Compound 9, N-[3-(2-Cyclohexylamino-7-oxo-7H-pyrido[2,3-d]pyrimidin-8-yl)-propyl]-methanesulfonamide]: the IC50 was found to be 0.464 µM at Human JNK1α1 and 0.625 µM against Human JNK2α2.

Turning to `CC(CCO)n1c(=O)ccc2cnc(NC3CCCCC3)nc21` (stereo not drawn) [Compound 1, 2-Cyclohexylamino-8-(3-hydroxy-1-methyl-propyl)-8H-pyrido[2,3-d]pyrimidin-7-one], the IC50 against Human JNK1α1 turned out to be 0.0701 µM; against Human JNK2α2 it was 0.154 µM.

Turning to `O=c1ccc2cnc(NC3CCCCC3)nc2n1C1CCCC1` [Compound 3, 2-Cyclohexylamino-8-cyclopentyl-8H-pyrido[2,3-d]pyrimidin-7-one], the IC50 was 0.108 µM at Human JNK1α1 and 0.136 µM on Human JNK2α2.

(Values after patent US8404695B2, “Pyrimidinyl pyridone inhibitors of JNK” (Roche Palo Alto LLC, priority 2008, dated 2013).)
